Experimental data from patent US8546409B2, “Methods of treatment for solid tumors” (priority 2009, dated 2013).
“And” between values parts separate entries of the source, which are not always exact repeats. Identical values can stand only once. “Also recorded” adds a separate entry of the source.

Tests used:
SK-MEL-28 = test: NCI panel growth inhibition, SK-MEL-28; format: cell-based; conditions: Homo sapiens, Melanoma
Description: (§1) Compound I has also been tested in a battery of tumor cell assays known as the NCI panel.

NCI-H522 = test: NCI panel growth inhibition, NCI-H522; format: cell-based; conditions: Homo sapiens, Non-Small Cell Lung Cancer
Description: as §1

CAKI-1 = test: NCI panel growth inhibition, CAKI-1; format: cell-based; conditions: Homo sapiens, Renal
Description: as §1

p110β = target: T1, p110β (Homo sapiens, UniProt P42338); test: Chick embryo fibroblast (CEF) transformation assay, p110β; format: cell-based; conditions: read-out: EC-50 for inhibition of functional activity of p110β
T1 construct: expressed in transfected cells; host or cells: chick embryo fibroblasts (CEF), viral transduction
Description: Moreover, compound I has comparatively low activity on p110α in a cell-transformation system designed to measure functional activity of these kinases, but is a potent inhibitor of both p110β and p110δ in that assay. See Example 1. This chick embryo fibroblast (CEF) transformation system has been reported as a useful way to assess the functional activity of the PI3K signaling pathway. Denley, et al., “Oncogenic signaling of class I PI3K isoforms,” Oncogene, vol. 27(18), 2561-74 (2008). Transformation of CEF cells in the assay depends upon functional kinase activity. Kang, et al., Proc. Nat'l Acad. Sci. USA, vol. 103(5), 1289-94 (2006). The readout of this assay is based on the frequency of transformation of CEF cells exposed to viral vectors carrying a specific p110 isoform of interest.
Chick embryo fibroblasts (CEF) are transduced with viral stocks with versions of the human genes for the individual PI3K isoforms p110α, p110β, p110δ and p110γ. These transduced CEF lines are then plated in a growth medium where oncogenically transformed cells form foci that can then be stained and counted. […] Denley A, Kang S, Karst U and Vogt PK, “Oncogenic signaling of class 1 PI3K isoforms.” Oncogene (2008) 27: 2561-2574. FIG. 3 illustrates the readout of this assay.

MCF7 = test: NCI panel growth inhibition, MCF7; format: cell-based; conditions: Homo sapiens, Breast Cancer
Description: as §1

OVCAR-4 = test: NCI panel growth inhibition, OVCAR-4; format: cell-based; conditions: Homo sapiens, Ovarian
Description: as §1

RXF 393 = test: NCI panel growth inhibition, RXF 393; format: cell-based; conditions: Homo sapiens, Renal
Description: as §1

HS 578T = test: NCI panel growth inhibition, HS 578T; format: cell-based; conditions: Homo sapiens, Breast Cancer
Description: as §1

OVCAR-3 = test: NCI panel growth inhibition, OVCAR-3; format: cell-based; conditions: Homo sapiens, Ovarian
Description: as §1

PIKC3 = PIKC3 (Homo sapiens, UniProt Q8NEB9); test: biochemical
Description: This table provides IC-50's for inhibition of kinase activity of these other lipid kinases: […]

BT-549 = test: NCI panel growth inhibition, BT-549; format: cell-based; conditions: Homo sapiens, Breast Cancer
Description: as §1

COLO 205 = test: NCI panel growth inhibition, COLO 205; format: cell-based; conditions: Homo sapiens, Colon Cancer
Description: as §1

IGROV1 = test: NCI panel growth inhibition, IGROV1; format: cell-based; conditions: Homo sapiens, IGROV-1, Ovarian
Description: as §1

MDA-MB-435 = test: NCI panel growth inhibition, MDA-MB-435; format: cell-based; conditions: Homo sapiens, Breast Cancer
Description: as §1

OVCAR-3 xenografts = test: Ovarian cancer cell xenografts in nu/nu mice (FIG. 8); format: in vivo; conditions: 30 mg/kg BID, 36 days, female nu/nu mice
Procedure: Female nu/nu mice bearing OVCAR-3 xenografts (human ovarian cancer cells) were maintained until tumor volume measured about 100 mm^3. At that point, treatment began with compound I at a rate of 30 mg/kg administered twice per day.

MDA-MB-231 = test: NCI panel growth inhibition, MDA-MB-231; format: cell-based; conditions: Homo sapiens, Breast Cancer
Description: as §1

MALME-3M = test: NCI panel growth inhibition, MALME-3M; format: cell-based; conditions: Homo sapiens, Melanoma
Description: as §1

ADR-RES = test: NCI panel growth inhibition, ADR-RES; format: cell-based; conditions: Breast Cancer
Description: as §1

SF-268 = test: NCI panel growth inhibition, SF-268; format: cell-based; conditions: Homo sapiens, CNS Cancer
Description: as §1

SK-MEL-2 = test: NCI panel growth inhibition, SK-MEL-2; format: cell-based; conditions: Homo sapiens, Melanoma
Description: as §1

OVCAR-8 = test: NCI panel growth inhibition, OVCAR-8; format: cell-based; conditions: Homo sapiens, Ovarian
Description: as §1

U251 = test: NCI panel growth inhibition, U251; format: cell-based; conditions: Homo sapiens, U-251, CNS Cancer
Description: as §1

HCT-15 = test: NCI panel growth inhibition, HCT-15; format: cell-based; conditions: Homo sapiens, Colon Cancer
Description: as §1

[1] = mouse
Description: Bioavailability of Compound I upon oral administration is especially good; even compared to other quinazolinones of similar structures. For example, FIG. 6 illustrates that Compound I produces higher plasma concentrations of drug than another quinazolinone compound having a similar structure (Compound B). […] The degree of difference in oral bioavailability between Compound I and Compound B observed in this test is surprising.
Treatments of the invention typically involve administration of compound Ito a subject in need of treatment on a daily basis for at least one week or more than one week, often for 2-4 weeks, and sometimes for 1-3 months or more. The half-life of Compound I in vivo in mice and rats is several hours—see FIG. 6. It is thus sometimes desirable to administer compound I in multiple doses each day, in order to maintain efficacious plasma levels over a prolonged period of time. Administration may be done in two doses per day, or three doses per day, or in some embodiments, four doses per day or more, particularly when Compound I is administered orally. Alternatively, Compound I can be administered intravenously at a rate that maintains an efficacious plasma level for a prolonged period of time. Suitably, it would be administered at a rate to achieve a plasma level of at least about 1 micromolar, or at least 3 micromolar, or at least 5 micromolar.

SK-MEL-5 = test: NCI panel growth inhibition, SK-MEL-5; format: cell-based; conditions: Homo sapiens, Melanoma
Description: as §1

PC-3 = test: NCI panel growth inhibition, PC-3; format: cell-based; conditions: Homo sapiens, Prostate
Description: as §1

T1 sequence (P42338 whole entry): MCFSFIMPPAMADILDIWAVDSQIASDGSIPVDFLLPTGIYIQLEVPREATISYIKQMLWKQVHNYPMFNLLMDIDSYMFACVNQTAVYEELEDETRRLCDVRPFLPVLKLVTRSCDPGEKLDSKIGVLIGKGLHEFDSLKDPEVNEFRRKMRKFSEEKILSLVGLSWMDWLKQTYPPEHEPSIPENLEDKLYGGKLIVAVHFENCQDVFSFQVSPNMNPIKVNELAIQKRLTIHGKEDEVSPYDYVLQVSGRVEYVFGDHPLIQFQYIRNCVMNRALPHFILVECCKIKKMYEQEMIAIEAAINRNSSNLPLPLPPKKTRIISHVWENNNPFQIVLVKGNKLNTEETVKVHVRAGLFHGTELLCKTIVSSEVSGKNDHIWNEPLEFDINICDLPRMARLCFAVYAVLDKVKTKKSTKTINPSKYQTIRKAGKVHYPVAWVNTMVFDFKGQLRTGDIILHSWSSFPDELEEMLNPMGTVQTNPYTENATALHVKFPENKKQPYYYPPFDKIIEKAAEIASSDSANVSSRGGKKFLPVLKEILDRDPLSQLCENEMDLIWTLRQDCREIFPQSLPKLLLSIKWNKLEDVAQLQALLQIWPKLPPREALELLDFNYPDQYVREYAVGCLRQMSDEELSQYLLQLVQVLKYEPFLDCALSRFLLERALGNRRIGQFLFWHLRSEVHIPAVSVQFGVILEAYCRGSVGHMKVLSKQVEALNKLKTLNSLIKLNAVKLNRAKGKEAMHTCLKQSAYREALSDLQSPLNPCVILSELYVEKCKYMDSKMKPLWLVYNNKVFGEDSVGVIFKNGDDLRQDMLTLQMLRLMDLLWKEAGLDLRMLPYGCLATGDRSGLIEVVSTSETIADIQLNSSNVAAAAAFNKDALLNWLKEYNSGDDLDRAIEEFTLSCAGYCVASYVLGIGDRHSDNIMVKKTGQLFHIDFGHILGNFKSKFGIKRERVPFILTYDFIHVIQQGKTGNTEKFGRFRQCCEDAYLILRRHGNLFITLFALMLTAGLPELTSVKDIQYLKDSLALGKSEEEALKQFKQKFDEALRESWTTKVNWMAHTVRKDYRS
Chain of PIKC3 (Q8NEB9 whole entry): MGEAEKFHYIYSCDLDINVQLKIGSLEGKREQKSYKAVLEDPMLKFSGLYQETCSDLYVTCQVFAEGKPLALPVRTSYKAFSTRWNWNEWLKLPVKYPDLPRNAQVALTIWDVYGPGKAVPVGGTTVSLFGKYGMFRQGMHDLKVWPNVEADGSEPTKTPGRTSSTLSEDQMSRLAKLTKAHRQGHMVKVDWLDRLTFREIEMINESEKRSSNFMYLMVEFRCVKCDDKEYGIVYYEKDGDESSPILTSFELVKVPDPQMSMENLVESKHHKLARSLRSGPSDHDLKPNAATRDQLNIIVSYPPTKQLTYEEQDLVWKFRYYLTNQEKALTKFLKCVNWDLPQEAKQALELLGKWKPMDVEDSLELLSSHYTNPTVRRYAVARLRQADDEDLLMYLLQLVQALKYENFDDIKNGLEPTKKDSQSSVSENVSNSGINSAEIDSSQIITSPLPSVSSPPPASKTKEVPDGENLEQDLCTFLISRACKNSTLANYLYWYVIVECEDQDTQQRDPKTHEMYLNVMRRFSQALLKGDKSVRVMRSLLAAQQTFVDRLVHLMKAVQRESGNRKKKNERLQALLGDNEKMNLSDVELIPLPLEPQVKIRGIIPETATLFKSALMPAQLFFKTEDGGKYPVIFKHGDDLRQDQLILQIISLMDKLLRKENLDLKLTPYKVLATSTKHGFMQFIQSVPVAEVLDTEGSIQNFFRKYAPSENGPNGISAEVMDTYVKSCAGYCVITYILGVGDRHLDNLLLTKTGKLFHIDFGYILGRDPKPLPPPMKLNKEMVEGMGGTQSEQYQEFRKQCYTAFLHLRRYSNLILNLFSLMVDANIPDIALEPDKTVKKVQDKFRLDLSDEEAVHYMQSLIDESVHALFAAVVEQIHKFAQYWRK

**Q.** Which results are given for C[C@H](Nc1ncnc2[nH]cnc12)c1nc2ccc(F)cc2c(=O)n1-c1ccccc1 [Compound I]?
**A.** GI50 (SK-MEL-28): 12.8 µM; GI50 (NCI-H522): 51.8 µM; GI50 (CAKI-1): 1.01 µM; EC50 (p110β): 0.15 µM and ~0.15 µM; GI50 (MCF7): 2.54 µM; GI50 (OVCAR-4): 100 µM; GI50 (RXF 393): 1.14 µM; GI50 (HS 578T): 2.24 µM; GI50 (OVCAR-3): 0.316 µM; IC50 (PIKC3): 2.5 µM; GI50 (BT-549): 0.538 µM; GI50 (COLO 205): 33.8 µM; GI50 (IGROV1): 2.7 µM; GI50 (MDA-MB-435): 43.1 µM; Tumor volume of OVCAR-3 xenograft (OVCAR-3 xenografts): the size of the existing tumor was actually reduced; also recorded: completely inhibited growth; also recorded: Tumor volume actually decreased; GI50 (MDA-MB-231): 100 µM; GI50 (MALME-3M): 4.58 µM; GI50 (ADR-RES): 58.6 µM; GI50 (SF-268): 1.89 µM; GI50 (SK-MEL-2): 100 µM; GI50 (OVCAR-8): 44.6 µM; GI50 (U251): 59.6 µM; GI50 (HCT-15): 30.3 µM; Half-life in vivo [1]: several hours; Peak plasma level compared to Compound B ([1]; in vivo, po): higher peak plasma level; Plasma level maintained for several hours ([1]; in vivo, po, 20 mg/kg): about 500 ng/mL; GI50 (SK-MEL-5): 31.3 µM; GI50 (PC-3): 0.647 µM
